Where “and” joins values, the source holds several entries; their conditions need not be identical. Equal entries are not always repeated. Inconclusive results and toxic doses are left out. Rule for the calls: active = survival T/C of 150% or more; inactive = T/C below 125% in these data.
System: P388 leukemia ip, CD2F1 mice, survival T/C
Assay: NCI In Vivo Anticancer Drug Screen. Data for tumor model P388 Leukemia (intraperitoneal) in CD2F1 (CDF1) mice
Conditions: endpoint: median survival time, higher = longer survival
Method in brief: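 Mice carrying the transplanted tumor received test compound or vehicle. Survival was recorded in each group, and the value is the treated-group measurement divided by that of the vehicle-treated control group.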

[1] = dose: 50.0 mg/kg/injection, schedule: Q01DX009 (ip), vehicle: Klucel (hydroxypropylcellulose) (HPC)
[2] = dose: 100.0 mg/kg/injection, schedule: Q01DX009 (ip), vehicle: Klucel (hydroxypropylcellulose) (HPC)
[3] = dose: 200.0 mg/kg/injection, schedule: Q01DX009 (ip), vehicle: Klucel (hydroxypropylcellulose) (HPC)
[4] = dose: 60.0 mg/kg/injection, schedule: Q01DX005 (ip), vehicle: saline with Tween-80
[5] = dose: 120.0 mg/kg/injection, schedule: Q01DX005 (ip), vehicle: saline with Tween-80
[6] = dose: 12.5 mg/kg/injection, schedule: Q01DX005 (ip), vehicle: Klucel (hydroxypropylcellulose) (HPC)
[7] = dose: 50.0 mg/kg/injection, schedule: Q01DX009 (ip), vehicle: saline
[8] = dose: 100.0 mg/kg/injection, schedule: Q01DX009 (ip), vehicle: saline
[9] = dose: 200.0 mg/kg/injection, schedule: Q01DX009 (ip), vehicle: saline
[10] = dose: 50.0 mg/kg/injection, schedule: Q01DX005 (ip), vehicle: saline with Tween-80
[11] = dose: 100.0 mg/kg/injection, schedule: Q01DX005 (ip), vehicle: saline with Tween-80
[12] = dose: 200.0 mg/kg/injection, schedule: Q01DX005 (ip), vehicle: saline with Tween-80
[13] = dose: 60.0 mg/kg/injection, schedule: Q01DX005 (ip), vehicle: Klucel (hydroxypropylcellulose) (HPC)
[14] = dose: 12.5 mg/kg/injection, schedule: Q01DX009 (ip), vehicle: saline
[15] = dose: 25.0 mg/kg/injection, schedule: Q01DX009 (ip), vehicle: saline
[16] = dose: 50.0 mg/kg/injection, schedule: Q01DX009 (ip), vehicle: saline with Tween-80
[17] = dose: 100.0 mg/kg/injection, schedule: Q01DX009 (ip), vehicle: saline with Tween-80
[18] = dose: 200.0 mg/kg/injection, schedule: Q01DX009 (ip), vehicle: saline with Tween-80

Measured: T/C

Cc1ccc(N=Cc2ccc(C=Nc3ccc(C)c(Cl)c3)cc2)cc1Cl
inactive: [1] 92 % of control | [2] 91 % of control | [3] 100 % of control

O=C1OC(=O)C2C1C1(c3ccccc3)OC2(c2ccccc2)c2ccccc21 (configuration not stated)
inactive: dose: 100.0 mg/kg/injection, schedule: Q04DX003 (ip), vehicle: saline with Tween-80 110 % of control | dose: 200.0 mg/kg/injection, schedule: Q04DX003 (ip), vehicle: saline with Tween-80 109 % of control | dose: 400.0 mg/kg/injection, schedule: Q04DX003 (ip), vehicle: saline with Tween-80 118 % of control

N=c1nc(N)nc2c3cc(Br)ccc3nnn12
inactive: [4] 113 % of control | [5] 117 % of control | dose: 240.0 mg/kg/injection, schedule: Q01DX005 (ip), vehicle: saline with Tween-80 108 % of control

O=C1c2ccccc2C(C2c3ccccc3C(=O)c3cc(Br)ccc32)c2ccc(Br)cc21 (configuration not stated)
inactive: [6] 88 % of control | dose: 25.0 mg/kg/injection, schedule: Q01DX005 (ip), vehicle: Klucel (hydroxypropylcellulose) (HPC) 97 % of control | dose: 50.0 mg/kg/injection, schedule: Q01DX005 (ip), vehicle: Klucel (hydroxypropylcellulose) (HPC) 90 % of control | dose: 100.0 mg/kg/injection, schedule: Q01DX005 (ip), vehicle: Klucel (hydroxypropylcellulose) (HPC) 86 % of control

CC(=O)SCC1C(=O)CCCC1=O
inactive: dose: 12.5 mg/kg/injection, schedule: Q04DX003 (ip), vehicle: saline with Tween-80 104 % of control | dose: 25.0 mg/kg/injection, schedule: Q04DX003 (ip), vehicle: saline with Tween-80 101 % of control and 109 % of control | dose: 50.0 mg/kg/injection, schedule: Q04DX003 (ip), vehicle: saline with Tween-80 100 % of control and 124 % of control

Oc1ccc(C2N=CNc3nc[nH]c32)c(O)c1 (configuration not stated)
inactive: [7] 105 % of control | [8] 102 % of control | [9] 100 % of control

COc1cc2c(cc1OC)C1CC3(CCN1CC2)CC(=O)NC3=O (configuration not stated)
inactive: dose: 50.0 mg/kg/injection, schedule: Q01DX005 (ip), vehicle: saline 97 % of control | dose: 100.0 mg/kg/injection, schedule: Q01DX005 (ip), vehicle: saline 99 % of control | dose: 200.0 mg/kg/injection, schedule: Q01DX005 (ip), vehicle: saline 90 % of control

Cc1nc2ccccc2nc1NNc1ccccc1
inactive: [10] 90 % of control | [11] 87 % of control | [12] 87 % of control

CC(C)(CC#N)c1cc(CC(C)(C)C2(C)OCCO2)no1
inactive: [10] 104 % of control | [11] 98 % of control | [12] 92 % of control

C[CH2][Pb]([CH2]C)([CH2]C)[O]C(=O)c1ccc2ccccc2n1
inactive: dose: 0.25 mg/kg/injection, schedule: Q01DX009 (ip), vehicle: saline with Tween-80 100 % of control | dose: 0.5 mg/kg/injection, schedule: Q01DX009 (ip), vehicle: saline with Tween-80 103 % of control | dose: 1.0 mg/kg/injection, schedule: Q01DX009 (ip), vehicle: saline with Tween-80 99 % of control | dose: 2.0 mg/kg/injection, schedule: Q01DX009 (ip), vehicle: saline with Tween-80 94 % of control | dose: 4.0 mg/kg/injection, schedule: Q01DX009 (ip), vehicle: saline with Tween-80 112 % of control | dose: 8.0 mg/kg/injection, schedule: Q01DX009 (ip), vehicle: saline with Tween-80 90 % of control

FC(F)(F)C1(C(F)(F)F)O[Te]2(OC1(C(F)(F)F)C(F)(F)F)OC(C(F)(F)F)(C(F)(F)F)C(C(F)(F)F)(C(F)(F)F)O2
inactive: dose: 6.25 mg/kg/injection, schedule: Q01DX005 (ip), vehicle: Klucel (hydroxypropylcellulose) (HPC) 100 % of control | [6] 112 % of control

CC(=O)C1CCC=C2C1CC1CC2C1(C)C (configuration not stated)
inactive: dose: 25.0 mg/kg/injection, schedule: Q01DX009 (ip), vehicle: Klucel (hydroxypropylcellulose) (HPC) 100 % of control | [1] 100 % of control | [2] 104 % of control

CC(=O)NC(CSC1(c2ccccc2)c2ccccc2-c2ccccc21)C(=O)O (configuration not stated)
inactive: [13] 93 % of control | dose: 120.0 mg/kg/injection, schedule: Q01DX005 (ip), vehicle: Klucel (hydroxypropylcellulose) (HPC) 89 % of control

C[N+]1=C(/C=C/Nc2cc3c4ccccc4ccc3c3ccccc23)C(C)(C)c2ccccc21
inactive: [1] 117 % of control | [2] 119 % of control | [3] 117 % of control

C[SiH]12(OC(C(F)(F)F)(C(F)(F)F)c3ccccc31)OC(C(F)(F)F)(C(F)(F)F)c1ccccc12
inactive: dose: 25.0 mg/kg/injection, schedule: Q01DX005 (ip), vehicle: saline with Tween-80 100 % of control | [10] 102 % of control

O=C1CCC(C(=O)N/N=C\C=N/NC(=O)C2CCC(=O)N2)N1 (configuration not stated)
inactive: dose: 5.0 mg/kg/injection, schedule: Q01DX009 (ip), vehicle: saline with Tween-80 101 % of control | dose: 10.0 mg/kg/injection, schedule: Q01DX009 (ip), vehicle: saline with Tween-80 103 % of control | dose: 20.0 mg/kg/injection, schedule: Q01DX009 (ip), vehicle: saline with Tween-80 103 % of control

BrC1C2CCC3OC3C12 (configuration not stated)
inactive: [4] 104 % of control | [5] 103 % of control

O=C(OC1CCCc2ccccc21)c1ccc(N=Nc2ccccc2)cc1 (configuration not stated)
inactive: [4] 95 % of control | [5] 88 % of control

NC(=S)N/N=C/c1c(Cl)nc2sccn12
inactive: dose: 100.0 mg/kg/injection, schedule: Q01DX001 (ip), vehicle: Klucel (hydroxypropylcellulose) (HPC) 92 % of control | dose: 200.0 mg/kg/injection, schedule: Q01DX001 (ip), vehicle: Klucel (hydroxypropylcellulose) (HPC) 97 % of control | dose: 400.0 mg/kg/injection, schedule: Q01DX001 (ip), vehicle: Klucel (hydroxypropylcellulose) (HPC) 97 % of control

CN(C)/C(N)=N\c1ncccn1
inactive: [14] 94 % of control | [15] 91 % of control | [7] 91 % of control | [8] 93 % of control | [9] 90 % of control

CCCCCCCC/C=C\CCCCCCCC(=O)OC/C=C/COC(=O)c1ccccc1
inactive: dose: 100.0 mg/kg/injection, schedule: Q04DX003 (ip), vehicle: Klucel (hydroxypropylcellulose) (HPC) 106 % of control | dose: 200.0 mg/kg/injection, schedule: Q04DX003 (ip), vehicle: Klucel (hydroxypropylcellulose) (HPC) 99 % of control | dose: 400.0 mg/kg/injection, schedule: Q04DX003 (ip), vehicle: Klucel (hydroxypropylcellulose) (HPC) 106 % of control

c1cncc(CNCc2cccnc2)c1
inactive: [15] 94 % of control | [7] 110 % of control | [8] 97 % of control | [9] 94 % of control

CCCOC(=O)C1C2CCC(O2)C1C(=O)O (configuration not stated)
inactive: dose: 6.25 mg/kg/injection, schedule: Q01DX005 (ip), vehicle: saline 106 % of control | dose: 12.5 mg/kg/injection, schedule: Q01DX005 (ip), vehicle: saline 103 % of control

Fc1ccc(N2C(Cl)(Cl)C23c2ccccc2-c2ccccc23)cc1
inactive: dose: 12.5 mg/kg/injection, schedule: Q01DX009 (ip), vehicle: saline with Tween-80 104 % of control | dose: 25.0 mg/kg/injection, schedule: Q01DX009 (ip), vehicle: saline with Tween-80 103 % of control | [16] 94 % of control | [17] 103 % of control | [18] 112 % of control

CN(C)C1C[C@@H](O[Si](C)(C)C(C)(C)C)C=C1S(=O)(=O)c1ccccc1 (some centres not stated)
inactive: [13] 87 % of control

CCOc1cc(C)c(CC2NC(=O)NC2=O)cc1C(C)C (configuration not stated)
inactive: dose: 100.0 mg/kg/injection, schedule: Q04DX003 (ip), vehicle: suspension in saline 100 % of control | dose: 200.0 mg/kg/injection, schedule: Q04DX003 (ip), vehicle: suspension in saline 100 % of control | dose: 400.0 mg/kg/injection, schedule: Q04DX003 (ip), vehicle: suspension in saline 88 % of control

CCOC(=O)CC1=NN=C(N)SC1
inactive: [14] 100 % of control | [15] 101 % of control and 103 % of control | [7] 101 % of control and 106 % of control | [8] 93 % of control and 97 % of control | [9] 87 % of control

CC(NCc1ccccc1)[Si](C)(C)C (configuration not stated)
inactive: [10] 102 % of control | [11] 105 % of control

O=C(N1CCCCCC1)N1CC1
inactive: [1] 93 % of control | [2] 118 % of control

O=C(NCc1ccccc1)c1ccc([N+](=O)[O-])cc1
inactive: [16] 87 % of control | [17] 95 % of control | [18] 95 % of control | dose: 400.0 mg/kg/injection, schedule: Q01DX009 (ip), vehicle: saline with Tween-80 91 % of control

Reference: PubChem BioAssay AID330 (DTP/NCI, 2004)
